pEC50, pIC50: −log10 of the molar value. ≈ marks a conversion by molar mass, not a printed value.
Key:
Escherichia coli = experiment: In vitro inhibition of procaryotic translation using Escherichia coli S30 Extract system for Circular DNA.; type: functional
[1] = In vitro inhibition of eucaryotic translation using […].; type: functional
Mus musculus = experiment: In vivo inhibitory activity against Staphylococcus aureus 133 after iv dose using murine sepsis model; type: functional
[2] = In vitro selectivity ratio of procaryotic translation to eukaryotic translation; type: functional
J774 = experiment: Cytotoxicity against macrophage cell line (J774); type: functional, cell-based; conditions: Mus musculus
Staphylococcus aureus = experiment: Minimum inhibitory concentration against Staphylococcus aureus in vitro.; type: functional

Row | Structure (SMILES) | pIC50 (Escherichia coli) | pIC50 [1] | ED100 (Mus musculus) | Selectivity ratio [2] | pEC50 (J774) | MIC (Staphylococcus aureus)
1 | CN(C(=O)C[C@@H](N)CCCN)C1CN=C(NC(N)=O)NC1=O.Cl.Cl (some centres not stated) | 5.70 | 5.43 | 0.2 mg/kg | 1.9 | 4.60 | 0.4 µg/mL
2 | CN(C(=O)CC(N)c1cccc(NC(=N)N)c1)C1CN=C(NC(N)=O)NC1=O.Cl.Cl (configuration not stated) | 6.30 | 6.59 |  | 0.52 |  | 50 µg/mL
3 | CN(C(=O)C[C@@H](N)CCCCN=C(N)N)C1CN=C(NC(N)=O)NC1=O.Cl.Cl (some centres not stated) | 6.52 | 5.80 |  | 5.3 |  | 0.2 µg/mL
4 | COC(=O)NCCC[C@H](N)CC(=O)N(C)C1CN=C(NC(N)=O)NC1=O (some centres not stated) | < 4.19 |  |  |  |  | 100 µg/mL (≈ 269 µM)
5 | CN(C(=O)CC(N)CCCO)C1CN=C(NC(N)=O)NC1=O.Cl (configuration not stated) | < 4.19 |  |  |  |  | 100 µg/mL
6 | CN(C(=O)C[C@@H](N)CCC(N)=O)C1CN=C(NC(N)=O)NC1=O.Cl (some centres not stated) | 4.19 |  |  |  |  | 12.5 µg/mL
7 | CN(C(=O)C[C@@H](N)CC[C@H](N)CO)C1CN=C(NC(N)=O)NC1=O.Cl.Cl (some centres not stated) | 5.62 | 5.62 |  | 1 |  | 3.2 µg/mL
8 | CC(N)CCC(N)CC(=O)N(C)C1CN=C(NC(N)=O)NC1=O.Cl.Cl (configuration not stated) | 6.00 | 5.92 |  | 1.2 |  | 0.4 µg/mL
9 | CN(C(=O)C[C@@H](N)CCC/N=C(/N)S)C1CN=C(NC(N)=O)NC1=O.Cl (some centres not stated) | 6.70 | 6.70 |  | 1 |  | 0.4 µg/mL
10 | CN(C(=O)CC(N)CC1CNCCO1)C1CN=C(NC(N)=O)NC1=O.Cl.Cl (configuration not stated) | 5.82 |  |  |  |  | 6.3 µg/mL
11 | CN(C(=O)C[C@@H](N)CCCN=C(N)N)C1CN=C(NC(N)=O)NC1=O.Cl.Cl (some centres not stated) |  | 6.77 | 0.25 mg/kg | 0.57 | 6.60 | 0.1 µg/mL
12 | CN(C(=O)C[C@@H](N)CCCCN)C1CN=C(NC(N)=O)NC1=O.Cl.Cl (some centres not stated) |  | 5.55 | 0.25 mg/kg | 5.3 | 5.22 | 0.05 µg/mL
13 | CN(C(=O)C[C@@H](N)CC(=O)CCN)C1CN=C(NC(N)=O)NC1=O.Cl.Cl (some centres not stated) | 5.52 |  |  |  |  | 3.2 µg/mL
14 | C/N=C(/N)NCCC[C@H](N)CC(=O)N(C)C1CN=C(NC(N)=O)NC1=O.Cl.Cl (some centres not stated) |  | 5.35 | 2 mg/kg | 9.1 | 5.26 | 0.8 µg/mL
15 | Br.Br.CN(C(=O)C[C@@H](N)CCCNC1=NCCN1)C1CN=C(NC(N)=O)NC1=O (some centres not stated) | 5.03 | 5.03 |  | 1 |  | 12.5 µg/mL
16 | CN(C(=O)C[C@@H](N)CCN=C(N)N)C1CN=C(NC(N)=O)NC1=O.Cl.Cl (some centres not stated) | 5.92 | 5.92 |  | 1 |  | 25 µg/mL
17 | C/C(N)=N/CCC[C@H](N)CC(=O)N(C)C1CN=C(NC(N)=O)NC1=O.Cl.Cl (some centres not stated) |  | 6.22 |  | 0.17 |  | 0.4 µg/mL
18 | CCNCCC[C@H](N)CC(=O)N(C)C1CN=C(NC(N)=O)NC1=O.Cl.Cl (some centres not stated) | 5.40 | 5.12 |  | 1.9 |  | 0.8 µg/mL
19 | CN(C(=O)C[C@@H](N)CCCC#N)C1CN=C(NC(N)=O)NC1=O.Cl (some centres not stated) | 4.60 | 4.60 |  | 1 |  | 50 µg/mL
20 | CN(C(=O)C[C@H](N)CCCN)C1CN=C(NC(N)=O)NC1=O.Cl.Cl (some centres not stated) | 5.22 | 5.03 |  | 1.6 |  | 6.3 µg/mL
21 | CN(C(=O)C[C@@H](N)CC(O)CCN)C1CN=C(NC(N)=O)NC1=O.Cl.Cl (some centres not stated) | 5.52 | 5.49 |  |  |  | 0.4 µg/mL

— ChEMBL document CHEMBL1136265, “Dihydropyrimidinones--a new class of anti-staphylococcal antibiotics” (Bioorg Med Chem Lett, 2003)
